Structures can show the parent of a compound that is named as a salt. Bounds are passed on as bounds.

One series concerns Wistar-strain male rats. Briefly: Hypoglycemic effect (blood glucose level in fasted, glucose-loaded rats). The class given is in vivo. The conditions noted are these: 100 mg/kg oral, 2 hours later; for Blood Glucose Level: fasted rats with s.c. 20% glucose 0.5 ml/100 g, control 139 ± 3; for inhibition in vivo at 100 mg/kg: Rattus norvegicus, decrease vs control (139 ± 3 mg/dl). As to the method: Groups of 7 Wistar-strain male rats (weighing about 200 g) which were fasted for 20 hours were used for measurement of the hypoglycemic effect according to the modified method by Dulin et al. [Dulin, W. L. et al., Proc. Soc. Expl. Med., 107, 245 (1961)]. That is, 0.5 ml/100 g of 20% aqueous solution of glucose was subcutaneously administered to the backs of rats to prevent a decrease in blood glucose level because of the fasting. […] The obtained blood sample was allowed to stand for 30 minutes to complete the coagulation and was centrifuged to obtain the serum. Blood sugar level was measured according to the mutalotase GOD method [Trinder, Ann. Clin. Biochem., 6, 24 (1979)].

Series [1] in a line: Acute toxicity test (oral, lethal dose by deaths over 7 days). Particulars: mouse, in vivo, suspended in 0.5% aqueous C.M.C., fasted 20 hours, deaths for 7 days. As to the method:
The test compounds of the present invention suspended in 0.5% aqueous solution of carboxymethylcellulose (C.M.C.) were orally administered to groups of 4 to 6 ddY-strain male mice (weighing about 19 g) which had fasten for 20 hours. The lethal dose was determined by the number of deaths for 7 days thereafter.

For `CCCCNC(=O)NS(=O)(=O)c1ccc(C)cc1` [Tolubutamide, reference compound], in the series with Wistar-strain male rats, the “Blood Glucose Level” value was determined as 50 ± 1 mg/dL and the inhibition in vivo at 100 mg/kg was 64%.

For the compound `CNC(=O)NC(=O)C(=O)O` [compound 1, 5-methyloxaluric acid ammonium salt], in the series on Wistar-strain male rats, the “Blood Glucose Level” value came to 104 ± 7 mg/dL and the inhibition in vivo at 100 mg/kg is 25.2%.

Turning to `CCNC(=O)NC(=O)C(=O)O` [compound 2, 5-ethyloxaluric acid ammonium salt], in series [1], the median lethal dose (LD50) at 168 h was 3000 to 4000 mg/kg. In the series on Wistar-strain male rats, the “Blood Glucose Level” value is 102 ± 4 mg/dL and the inhibition in vivo at 100 mg/kg amounted to 26.6%.

Take `CCCCNC(=O)NC(=O)C(=O)O` [compound 3, 5-butyloxaluric acid]: in the series with Wistar-strain male rats, the “Blood Glucose Level” value was 103 ± 5 mg/dL and testing at 100 mg/kg gave an inhibition in vivo of 26%.

As for `CCOC(=O)C(=O)NC(=O)NC` [compound 12, 5-methyloxaluric acid ethyl ester], in the series with Wistar-strain male rats, the “Blood Glucose Level” value came to 81 ± 5 mg/dL and the inhibition in vivo at 100 mg/kg amounted to 41.7%.

As to `CCCCNC(=O)NC(=O)C(=O)OC` [compound 13, 5-butyloxaluric acid methyl ester], the LD50 at 168 h in series [1] fell in the range of 1000 to 2000 mg/kg. In the series on Wistar-strain male rats, the “Blood Glucose Level” value was determined as 88 ± 3 mg/dL and 100 mg/kg produced 36.7% inhibition in vivo.

Turning to `CCOC(=O)C(=O)NC(=O)NCC(C)C` [compound 14, 5-iso-butyloxaluric acid ethyl ester], in the series with Wistar-strain male rats, the “Blood Glucose Level” value amounted to 93 ± 2 mg/dL and the inhibition in vivo at 100 mg/kg is 33.1%.

In series [1], `CCCCOC(=O)C(=O)NC(=O)NC` [compound 20, 5-methyloxaluric acid butyl ester] had a 50% lethal dose (LD50) at 168 h above 4000 mg/kg. Moreover, in the series on Wistar-strain male rats, the “Blood Glucose Level” value amounted to 101 ± 6 mg/dL and testing at 100 mg/kg gave an inhibition in vivo of 27.3%.

`CNC(=O)NC(=O)C(=O)OCC(C)C` [compound 21, 5-methyloxaluric acid iso-butyl ester]: in the series with Wistar-strain male rats, the “Blood Glucose Level” value came to 115 ± 4 mg/dL and the inhibition in vivo at 100 mg/kg is 17.3%.

For `CCCCCCCCOC(=O)C(=O)NC(=O)NC` [compound 22, 5-methyloxaluric acid octyl ester], in the series with Wistar-strain male rats, the “Blood Glucose Level” value turned out to be 122 ± 2 mg/dL and the inhibition in vivo at 100 mg/kg was 12.2%.

One may read the inhibition in vivo as the share of the control response that was lost under treatment. The LD50 is the dose expected to kill half of the subjects tested.

The values above are taken from US4708954A, “Hypogylcemic oxaluric acid derivatives” (Nippon Zoki Pharmaceutical Co., Ltd., priority 1985, dated 1987).
